In patent US20160303184A1, “VANCOMYCIN-SUGAR CONJUGATES AND USES THEREOF” (JAWAHARLAL NEHRU CENTRE FOR ADVANCED SCIENTIFIC RESEARCH …, priority 2013, published 2016):
Converted amounts (≈) assume the structure as drawn. “Also recorded” adds a separate entry of the source.

Tests used:
[1] = tested on: Methicillin-sensitive S. aureus (MTCC 737); experiment: MIC, micro-dilution broth, MSSA; assay type: cell-based; conditions: MTCC 737; read-out: MIC MSSA
Experimental: (§1) All test compounds were assayed in a micro-dilution broth format. Stock solutions were made by serially diluting the compounds using autoclaved millipore water or broth media. The antibacterial activity of the compounds was determined against methicillin-sensitive S. aureus (MSSA), methicillin-resistant S. aureus (MRSA), vancomycin-intermediate-resistant S. aureus (VISA), vancomycin-sensitive E. faecium (VSE) and vancomycin-resistant E. faecium (VRE). Bacteria, to be tested, were grown for about 10 h in the suitable media, MSSA, MRSA and VISA were grown in yeast-dextrose broth (about 1 g of beef extract, about 2 g of yeast extract, about 5 g of peptone and about 5 g of NaCl in about 1000 mL of sterile distilled water (pH-7)). For solid media, about 5% agar was used along with above mentioned composition. VSE and VRE were cultured in brain heart infusion broth (Himedia). The bacterial samples were freeze dried and stored at −80° C. About 5 μL of these stocks were added to about 3 mL of the nutrient broth and the culture was grown for about 6 h at about 37° C. prior to the experiments. This 6 h grown culture gives about 10^9 cfu/mL and this was determined by spread plating method. The 6 h grown culture was diluted to give effective cell concentration of about 10^5 cfu/mL which was then used for determining MIC. Compounds were serially diluted, in sterile water (2 fold dilution is employed) in a way that the working concentration was about 10 μM for MSSA, MRSA, and VSE while for VRE and VISA it was about 100 μM. About 50 μL of these serial dilutions were added to the wells of 96 well plate followed by the addition of about 150 μL of bacterial solution. The plates were then incubated at about 37° C., 150 rpm in the incubator and O.D at 600 nm was recorded at an interval of about 10 h and 24 h using TECAN (Infinite series, M200 pro) Plate Reader. Each concentration had triplicate values and the whole experiment was done at least twice and the MIC value was determined by taking the average of triplicate. O. D. values for each concentration and plotting it against concentration. The data was then subjected to sigmoidal fitting. From the curve the MIC value was determined, as the point in the curve where the O. D. was similar to that of control having no bacteria.

[2] = tested on: Methicillin-resistant S. aureus (ATCC 33591); experiment: MIC, micro-dilution broth, MRSA; assay type: cell-based; conditions: ATCC 33591; read-out: MIC MRSA
Experimental: as §1

[3] = tested on: Vancomycin intermediate resistant S. aureus; experiment: MIC, micro-dilution broth, VISA; assay type: cell-based; conditions: read-out: MIC VISA
Experimental: as §1

[4] = tested on: Vancomycin-sensitive E. faecium (ATCC 19634); experiment: MIC, micro-dilution broth, VSE; assay type: cell-based; conditions: ATCC 19634; read-out: MIC VSE
Experimental: as §1

[5] = tested on: Vancomycin-resistant E. faecium (VanA, ATCC 51559); experiment: MIC, micro-dilution broth, VRE (VanA); assay type: cell-based; conditions: E. faecium ATCC 51559; read-out: MIC VRE (VanA)
Experimental: as §1

[6] = tested on: Vancomycin-resistant E. faecalis (VanA, ATCC 51575); experiment: MIC, micro-dilution broth, VRE (VanB); assay type: cell-based; conditions: E. faecalis ATCC 51575; read-out: MIC VRE (VanB)
[7] = tested on: methicillin-resistant S. epidermidis clinical isolate; experiment: MIC, clinical isolate of methicillin-resistant S. epidermidis; assay type: cell-based; conditions: clinical isolate, methicillin-resistant
[8] = tested on: methicillin-resistant S. haemolyticus clinical isolate; experiment: MIC, clinical isolate of methicillin-resistant S. haemolyticus; assay type: cell-based; conditions: clinical isolate, methicillin-resistant; read-out: MIC S. haemolyticus
[9] = tested on: methicillin-resistant S. aureus clinical isolate; experiment: MIC, clinical isolate of methicillin-resistant S. aureus; assay type: cell-based; conditions: clinical isolate, methicillin-resistant
Experimental: as §1

VISA [10] = experiment: Ex-vivo whole blood assay; assay type: cell-based, S. aureus; conditions: 3 h incubation in 90% human whole blood
Experimental: Ex-vivo whole blood assay was performed to compare the abilities of these compounds to retain activity in complex media. To 30 μL of VISA in saline (0.9% NaCl; 10^6 CFU/mL) 10 μL of test compounds (vancomycin and compound 7) and 270 μL of fresh human whole blood were added and incubated, at 37° C. for about 3 h. After the incubation period, antibacterial activity was determined by finding the bacterial titer in the infected blood.

VISA [11] = experiment: In-vivo time dependent whole blood assay; set-up: species or system S. aureus; conditions: 12 mg/kg single i.v., CD-1 mice, VISA
Experimental: The derivative 7 and vancomycin were administered in a single intravenous injection (0.2 mL saline) to normal pathogen-free, female CD-1 mice. Doses of 12 mg kg^−1 were administered to three mice per data point. At the specified time-points (0, 3, 6, 12, 24 and 48 h) mice were euthanized (using ether), blood samples were collected from the ocular puncture. 60 μL of VISA in saline (0.9% NaCl; 10^6 CFU/mL) was added to 540 μL of whole blood which was drawn from the mice and incubated at 37° C. for 3 h. After the incubation period, antibacterial activity was determined by finding the bacterial titer in the infected blood.

[12] = tested on: methicillin-resistant vancomycin-intermediate S. aureus (MR-VISA); experiment: Time-kill assay; assay type: cell-based; conditions: 2 μM and 4 μM
Experimental: The bactericidal activity was assessed by the kinetics or the rate at which it affects the killing action of the compound. Briefly methicillin-resistant vancomycin-intermediate S. aureus (MR-VISA) grown in Yeast-Dextrose broth. A starting inoculum of 1.6×10^8 CFU/ml was used as initial bacterial colony count. Vancomycin and compound 7 having final concentrations of 2 μM and 4 μM were inoculated with MR-VISA suspensions having starting inocula of 1.6×10^8 CFU/ml. Bacterial suspension containing specified concentrations of the compound along with negative control (which contains only 0.9% Saline) was incubated at 37° C. with shaking. Aliquots (20 μl) were removed from the cultures at different time intervals and were serially diluted 10-fold in 0.9% saline and plated onto sterile Yeast-Dextrose agar medium. The number of viable cells was determined by plating the 10-fold serial dilution of each sample onto Yeast-dextrose agar medium. Plates were then incubated for 24 h at 37° C., CFU was counted and the total bacterial log 10 CFU/ml was determined.

For `CN[C@H](CC(C)C)C(=O)N[C@H]1C(=O)N[C@@H](CC(N)=O)C(=O)N[C@H]2C(=O)N[C@H]3C(=O)N[C@H](C(=O)N[C@H](C(=O)O)c4cc(O)cc(O)c4-c4cc3ccc4O)[C@H](O)c3ccc(c(Cl)c3)Oc3cc2cc(c3O[C@@H]2O[C@H](CO)[C@@H](O)[C@H](O)[C@H]2O[C@H]2C[C@](C)(N)[C@H](O)[C@H](C)O2)Oc2ccc(cc2Cl)[C@H]1O` [Vancomycin], the MIC [1] was 0.63 µM (≈ 0.913 µg/mL), the MIC [2] was 0.63 µM (≈ 0.913 µg/mL) and the MIC [3] was 13.0 µM (≈ 18.8 µg/mL). The MIC [4] was 0.6 µM (≈ 0.87 µg/mL), the MIC [5] was >700 µM and the MIC [6] was 250 µM (≈ 362 µg/mL). For the same compound, the “MIC S. epidermidis” value [7] was 0.9 µM (≈ 1.3 µg/mL), the MIC [8] was 1.4 µM (≈ 2.03 µg/mL) and the “MIC S. aureus” value [9] was 0.7 µM (≈ 1.01 µg/mL). For the same compound, the “bactericidal activity in whole blood” value (VISA [10]) was “slow killing”, the “antibacterial activity of blood drawn at 3 h” value (VISA [11]) was “did not show any activity; also recorded: nominal activity” and the “antibacterial activity of blood drawn at 6 h” value (VISA [11]) was “did not show any activity”. For the same compound, the killing kinetics [12] was “relatively slow killing or bacteriostatic effect”.
